This is an account of results in patent publication US5034390A, “Pyridyl-and pyrmidyl-piperazines useful for the treatment of mental disorders” (Pharmacia AB, priority 1988, dated 1991).

The target of one experiment is T1, 5-HT2 receptors (Rattus norvegicus, UniProt P14842).
T1 construct: from tissue
In words: Affinity to 5-HT2 receptors (3H-ketanserine binding assay, Leysen et al.). The note with it: 3H-ketanserine as ligand. On the procedure:
The binding assay is carried out essentially as described by Leysen et al. (Mol. Pharmacol. 21, 301-14, 1982) using ^3 H-ketanserine as ligand.

The conditions of experiment [1]: combined 5-HT2/D2 affinity; cited from earlier work.

Structures can show the parent of a compound that is named as a salt.

T1 sequence (P14842 whole entry): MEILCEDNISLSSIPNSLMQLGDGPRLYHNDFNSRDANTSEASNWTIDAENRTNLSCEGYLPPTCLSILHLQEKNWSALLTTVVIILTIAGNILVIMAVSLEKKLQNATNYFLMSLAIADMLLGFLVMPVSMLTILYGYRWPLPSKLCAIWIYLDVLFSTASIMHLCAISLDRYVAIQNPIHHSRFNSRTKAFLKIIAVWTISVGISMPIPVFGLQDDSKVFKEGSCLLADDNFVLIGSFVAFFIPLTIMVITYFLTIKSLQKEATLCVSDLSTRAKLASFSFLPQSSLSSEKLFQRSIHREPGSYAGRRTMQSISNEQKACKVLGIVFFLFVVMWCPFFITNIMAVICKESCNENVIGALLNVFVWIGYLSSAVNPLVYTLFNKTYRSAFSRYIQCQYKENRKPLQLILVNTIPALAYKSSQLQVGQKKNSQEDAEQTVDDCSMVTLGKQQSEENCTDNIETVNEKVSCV

Take `NC(=O)c1cccnc1N1CCN(CCCSc2ccc(F)cc2)CC1` [2:19, 4-/3-(p-fluorothiophenoxy)propyl/-1-/3-carbamyl-2-pyridyl/piperazine dihydrochloride]: the Ki (usually a measure of affinity in units of concentration, obtained from inhibition or displacement) at 5-HT2 receptors came to 7 nM. This lies in the single-digit nanomolar range. For `CN1CCN(C2=Nc3cc(Cl)ccc3Nc3ccccc32)CC1` [clozapine], the “antipsychotic effect / extrapyramidal side-effects” value in experiment [1] was “antipsychotic effect with a low degree of extrapyramidal side-effects”. As for `Fc1ccc(CCCCN2CCN(c3cccc(Cl)n3)CC2)cc1` [2:9, 4-/4-(p-fluorophenyl)butyl/-1-/6-chloro-2-pyridyl/piperazine hydrochloride], the affinity at 5-HT2 receptors, expressed as Ki, was 7 nM. In turn, `COc1cccc(N2CCN(CCCOc3ccc(F)cc3)CC2)n1` [2:10, 4-/3-(p-fluorophenoxy)propyl/-1-/6-methoxy-2-pyridyl/piperazine fumarate] displayed a Ki on 5-HT2 receptors of 11 nM.
